From BindingDB's records for doi:10.7270/Q2F47MJ9 (Emory University, 2007)

Biological target: T1, Estrogen receptor (Homo sapiens, UniProt P03372)
T1 sequence (P03372 whole entry): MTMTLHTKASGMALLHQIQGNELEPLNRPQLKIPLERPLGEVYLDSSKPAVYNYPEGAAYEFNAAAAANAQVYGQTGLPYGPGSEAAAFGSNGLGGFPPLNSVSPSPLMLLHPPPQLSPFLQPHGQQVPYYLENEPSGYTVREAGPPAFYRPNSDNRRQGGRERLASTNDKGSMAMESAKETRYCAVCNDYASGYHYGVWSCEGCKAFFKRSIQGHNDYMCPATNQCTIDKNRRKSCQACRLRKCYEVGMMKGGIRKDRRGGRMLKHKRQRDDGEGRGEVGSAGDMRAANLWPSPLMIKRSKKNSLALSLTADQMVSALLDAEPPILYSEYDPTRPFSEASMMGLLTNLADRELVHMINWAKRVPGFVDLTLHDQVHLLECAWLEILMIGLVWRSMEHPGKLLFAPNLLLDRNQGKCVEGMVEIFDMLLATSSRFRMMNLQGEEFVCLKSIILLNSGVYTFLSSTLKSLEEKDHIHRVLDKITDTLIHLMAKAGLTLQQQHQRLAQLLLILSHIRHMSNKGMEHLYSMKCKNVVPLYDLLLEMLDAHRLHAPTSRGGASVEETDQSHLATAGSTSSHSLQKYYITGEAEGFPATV
Experiment: potentiators of ERα–SRC-1 coactivator binding, dose response, biochemical, TR-FRET, ERα LBD (AID 737)

| SMILES | EC50 [µM] |
| --- | --- |
| CCOc1ccc(Cc2sc(Nc3ccccn3)nc2O)cc1 [5-(4-Ethoxy-benzyl)-2-[(Z)-pyridin-2-ylimino]-thiazolidin-4-one] | 25.1 |
| CCOc1ccccc1C1c2c(-c3ccccc3)noc2N=C(N)C1C#N (stereo unspecified) [6-amino-4-(2-ethoxyphenyl)-3-phenyl-2,4-dihydroisoxazolo[5,4-b]pyridine-5-carbonitrile] | 17.5 |
| Cc1ccc(-c2n[nH]c(=S)n2NC=CCc2ccccc2[N+](=O)[O-])cc1 | 6.52 |
| CCc1[nH]nc2c1C(c1cccc(OC(=O)N3CCOCC3)c1)C(C#N)C(=N)O2 (stereo unspecified) [3-(6-amino-5-cyano-3-ethyl-1,4-dihydropyrano[2,3-c]pyrazol-4-yl)phenyl morpholine-4-carboxylate] | 6.39 |
| O=C1c2ccccc2C(=O)C1c1ccnc2ccccc12 [2-(1H-quinolin-4-ylidene)indane-1,3-quinone] | 6.74 |
| CCn1c(=NC(=O)c2ccc(-n3c(O)ccc3O)cc2)sc2c(OC)ccc(OC)c21 [4-[2,5-bis(oxidanylidene)pyrrolidin-1-yl]-N-(3-ethyl-4,7-dimethoxy-1,3-benzothiazol-2-ylidene)benzamide] | 7.94 |
